Each structure is given as a SMILES string. In brackets after ≈: the same amount, converted by molar mass. Read-outs that look alike come from different tables or passages of the source. Marks after values point to notes of the source that are not given here.

This is an account of results in article PMC3355380, “Back to the Future: Lessons Learned in Modern Target-based and Whole-Cell Lead Optimization of Antimalarials” (Current Topics in Medicinal Chemistry, 2012).

The subject of one data set is P. falciparum 3D7. Nature of the data set: P. falciparum 3D7 proliferation assay. As to conditions: Plasmodium falciparum, 3D7; imidazolopiperazine hits; mean of two experiments; read-out: P. falciparum 3D7 EC50. It counts as cell-based, Plasmodium falciparum. The text has this: (§1) We screened both our in-house compound collection (~2.3M compounds) and natural products library (12,000 compounds) using a cell based Plasmodium falciparum proliferation assay. This screen provided data on a large number of chemically diverse anti-malarial compounds. These nearly 5700 hits have been deposited into the public EBI database by GNF/Novartis. A number of these hits originated from kinase-directed libraries and many of which are pan-kinase inhibitors. De-convoluting and eliminating inherent kinase activity with many of these scaffolds while maintaining cellular potency was the first step in the hit-to-lead phase for these particular chemotypes. What follows is a summary of the chemical optimization of some kinase-like and non-kinase scaffolds which came out of the whole-cell screening effort.

Another data set deals with P. falciparum W2. Nature of the data set: P. falciparum W2 proliferation assay. Format: cell-based. As to conditions: Plasmodium falciparum, imidazolopiperazine hits, mean of two experiments.
Source text: as §1

The nature of the next data set: aqueous solubility. The settings on record: aqueous medium, pH 6.8, aqueous buffer. Format: physicochemical.
The target in the next data set is hERG (Homo sapiens, UniProt Q12809). The experiment in a line: hERG binding assay. (In general: hERG is a cardiac potassium channel; its block is linked to QT prolongation.)
Chain of hERG (Q12809 whole entry): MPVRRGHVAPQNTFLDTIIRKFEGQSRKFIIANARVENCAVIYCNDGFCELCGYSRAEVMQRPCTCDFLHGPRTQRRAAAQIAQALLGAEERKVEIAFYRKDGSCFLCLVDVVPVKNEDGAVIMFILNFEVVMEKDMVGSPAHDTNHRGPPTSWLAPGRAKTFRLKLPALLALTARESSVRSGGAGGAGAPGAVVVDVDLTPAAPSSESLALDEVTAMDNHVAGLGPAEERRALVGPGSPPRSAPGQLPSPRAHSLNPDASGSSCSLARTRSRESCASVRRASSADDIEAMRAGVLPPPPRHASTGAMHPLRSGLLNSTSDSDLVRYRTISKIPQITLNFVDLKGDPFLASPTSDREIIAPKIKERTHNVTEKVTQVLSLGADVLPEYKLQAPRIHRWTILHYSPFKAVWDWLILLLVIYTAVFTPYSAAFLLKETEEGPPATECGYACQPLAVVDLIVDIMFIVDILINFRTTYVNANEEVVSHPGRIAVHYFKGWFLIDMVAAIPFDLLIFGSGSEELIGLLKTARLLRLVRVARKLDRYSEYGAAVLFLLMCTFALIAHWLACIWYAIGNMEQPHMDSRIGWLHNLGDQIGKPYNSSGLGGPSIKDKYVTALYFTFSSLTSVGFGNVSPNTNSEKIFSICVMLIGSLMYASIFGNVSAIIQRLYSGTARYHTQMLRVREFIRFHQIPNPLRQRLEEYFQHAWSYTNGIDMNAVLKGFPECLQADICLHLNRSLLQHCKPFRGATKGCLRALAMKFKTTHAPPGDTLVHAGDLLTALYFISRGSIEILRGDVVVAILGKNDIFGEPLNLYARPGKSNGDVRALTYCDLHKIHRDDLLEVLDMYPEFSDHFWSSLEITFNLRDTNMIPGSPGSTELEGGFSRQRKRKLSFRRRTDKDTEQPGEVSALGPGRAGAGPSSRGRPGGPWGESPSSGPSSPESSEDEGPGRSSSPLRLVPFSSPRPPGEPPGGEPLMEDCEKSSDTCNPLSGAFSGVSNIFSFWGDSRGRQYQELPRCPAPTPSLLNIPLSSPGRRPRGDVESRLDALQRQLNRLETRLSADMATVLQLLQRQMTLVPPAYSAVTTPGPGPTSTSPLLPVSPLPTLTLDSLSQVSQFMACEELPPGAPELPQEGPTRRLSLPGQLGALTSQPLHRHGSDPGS
Another data set deals with Huh7. As to conditions: human.
Data set [1] relates to panel of cytochrome P450 isoforms. The experiment in a line: in vitro.
Data set [2] has as its system Plasmodium berghei. Nature of the data set: P. berghei murine model. It counts as in vivo.
Another data set is described as follows: PAMPA permeability assay. Format: in vitro ADME. From the text: Access to these types of in vitro assays, both within industry and academia, can greatly accelerate the drug discovery process.
A general note: The PAMPA barrier holds no transporters, so it reflects passive diffusion.

Data set [3] concerns P. falciparum NF54. Also noted: method as in PMID 20813948. As to conditions: Fig. 4; cited from earlier work.
The subject of data set [4] is chloroquine-resistant K1 P. falciparum strain. Also on record: method as in PMID 20813948. As to conditions: Fig. 4; cited from earlier work.
Data set [5] concerns P. falciparum NF54. Nature of the data set: P. falciparum NF54 in vitro potency. Format: cell-based. The settings on record: Plasmodium falciparum, spiroindolones, Tables 8 and 9.
A short description of data set [6]: metabolic stability in mouse liver microsomes. It counts as in vitro ADME.
Data set [7] is described as follows: metabolic stability in human liver microsomes. Format: in vitro ADME. (Liver microsomes are vesicles of endoplasmic reticulum, rich in cytochrome P450 enzymes.)
For data set [8], the system named is Plasmodium berghei. Also on record: method as in earlier work. As to conditions: single oral dose at 100 mg/kg; cited from earlier work.
A further data set can be described thus: in vivo. As to conditions: mouse, po.
Data set [9] can be described thus: 2-week rat toxicology study. It counts as in vivo.
In data set [10] the target is WT-PfDHFR (wild type PfDHFR). Also noted: method as in PMID 20350951. As to conditions: cited from earlier work.
Data set [11] has as its target QM-PfDHFR (quadruple mutant PfDHFR). Also noted: method as in PMID 20350951. As to conditions: cited from earlier work.
A further data set concerns the target hDHFR (human DHFR). Also on record: method as in PMID 20350951. As to conditions: cited from earlier work.
The subject of another data set is wild type P. falciparum. Also on record: method as in PMID 20350951. The settings on record: read-out: EC50 on wild type P. falciparum in vitro; cited from earlier work.
Where [12] appears, read: intrinsic clearance, high clearance corresponds to low stability.

Broadly, the EC50 is the midpoint of the concentration-response curve. As a reminder, the solubility is how much of the substance goes into solution per volume. A higher solubility goes with much dissolved substance. A word on the IC50: it is the midpoint of a concentration-inhibition curve. As for `NCC(=O)N1CCn2c(nc(-c3ccccc3)c2Nc2ccc3c(c2)OCO3)C1` [Compound 18a], the EC50 in the data set on P. falciparum 3D7 was found to be 0.063 µM; with P. falciparum W2 it was 0.097 µM. The same compound came in with a solubility in “aqueous solubility” greater than 175 µM. Moreover, the figures for the 50% inhibitory concentration (IC50) (at hERG; in data set [1]) were 19 µM and greater than 10 µM, respectively. In addition, the “Cytotoxicity (µM) Huh7” value in the data set on Huh7 is on record as greater than 10 µM.

The Cmax is the highest concentration seen after dosing. As a reminder, the bioavailability is the share of a dose that reaches the circulation, judged against a reference dose that is usually intravenous. Consider `CC1CCc2c([nH]c3ccccc23)C2(N1)C(=O)Nc1ccc(Br)cc12` (stereo not drawn) [Compound 21], for which, in the data set on Plasmodium berghei [2] (single oral dose of 100 mg/kg), the mouse survival result was “slight prolongation in mouse survival over control” and the reduction in parasitemia is 96%. In addition, the concentration in solution in the data set “aqueous solubility” (solubility) came to 75 µM (≈ 29.7 µg/mL). Also, the “permeability in a PAMPA assay” value in the data set “PAMPA permeability assay” stood at 99%. Further, in the data set on P. falciparum NF54 [3], the EC50 is 0.09 µM. For the same compound, the EC50 in data set [4] was 0.08 µM. In the data set “in vivo PK in mouse” (in vivo, po, 25 mg/kg), this compound came in with a peak concentration (Cmax) of 1.4 µM and a bioavailability of 59%. Further, the “oral T1/2” value in “in vivo PK in mouse” (single 25 mg/kg oral dose) is “four”.

`C[C@H]1Cc2c([nH]c3cc(Cl)c(F)cc23)[C@@]2(N1)C(=O)Nc1ccc(Cl)cc12` [Compound 30] gave an EC50 with P. falciparum NF54 [5] of 0.0009 µM. The “Liver Microsomes CLint, Mouse” value in [6] (setting [12]) is recorded as “Low”. In addition, the half-life in data set [6] (mouse, liver microsomes, read-out: Liver Microsomes t1/2 (min), Mouse) was 49 min; in data set [7] (human, liver microsomes, read-out: Liver Microsomes t1/2 (min), Human), 76 min; in the data set “in vivo PK in mouse” (in vivo, po), 10 h. Also, the “Liver Microsomes CLint, Human” value in data set [7] (setting [12]) is on record as “Low”. The “clearance of P. berghei infection” value with Plasmodium berghei [8] was “completely cleared a P. berghei infection in all treated mice”. Besides, the bioavailability in “in vivo” was found to be 100%.

A word on the Ki: it is a measure of affinity in units of concentration, obtained from inhibition or displacement. With `COc1ccc(OC)c(CNc2ccc3nc(N)nc(N)c3c2Cl)c1` [QN254, 5-Chloro-N'6'-(2 5 di-methoxy-benzyl)-quinazoline-2 4 6-triamine], the entries for the “Cure Rate (%)” value in the data set with Plasmodium berghei [2] (3 x 30 (mg/kg)), in the data set with Plasmodium berghei [2] (3 x 60 (mg/kg)) and in the data set on Plasmodium berghei [2] (3 x 100 (mg/kg)) were 80%, 60% and 20%, respectively. The “Toxicity Rate (%)” value was 0% in the data set on Plasmodium berghei [2] (3 x 30 (mg/kg)); 40^b % in the data set with Plasmodium berghei [2] (3 x 60 (mg/kg), mice died around day 10 and were parasite free); 80^b % in the data set with Plasmodium berghei [2] (3 x 100 (mg/kg), mice died around day 10 and were parasite free). Also, the “Average Survival” value in the data set on Plasmodium berghei [2] (3 x 30 (mg/kg), control survival 5.6 to 6.2 days) was 28.4 days. In addition, the “Parasitemia Reduction (%)” value was greater than 99.99% with Plasmodium berghei [2] (3 x 60 (mg/kg)); greater than 99.99% with Plasmodium berghei [2] (3 x 100 (mg/kg)); greater than 99.99% in the data set with Plasmodium berghei [2] (dosing regimen 3 x 30 (mg/kg), oral, compared to untreated controls). Moreover, the histopathological analysis result in data set [9] (2-week toxicology study) was “significant gastrointestinal and bone marrow toxicity”. Besides, the tolerability result in data set [9] (2 weeks, repeated oral administration of greater than 50 mg/kg) is reported as “not tolerated”. Moreover, the figures for the Ki (in data set [10]; in data set [11]; at hDHFR (human DHFR)) were 0.00039 ± 5e-05 µM, 0.00058 ± 6e-05 µM and 0.0102 ± 0.0006 µM, respectively. Besides, the EC50 with wild type P. falciparum was 0.009 µM.
